The text below walks through data of patent US7135466B2 (Kirin Beer Kabushiki Kaisha, priority 1999, dated 2006).

By IC50 is commonly meant the concentration needed to halve the response being measured. The term inhibition denotes the percentage by which the read-out fell short of the control.

Where two headings read alike, the source gives them in different places. A value given as a limit tells only on which side of the number the result lay.

In this experiment the target is T1, PDGF-Ra (Homo sapiens, UniProt P16234).
T1 construct: host or cells: G-292 human osteosarcoma cells
Briefly: Inhibitory activity against PDGF-Ra phosphorylation by PDGF-AA stimulation using G292. It counts as cell-based. Conditions: for IC50: > means inhibition at indicated concentration not more than 50%, < and << not less than 50%, read-out: PDGF (E) IC50; for inhibition at 0.1 µM: G292, at 100 nM, read-out: PDGF (E) inhibition (%) at 100 nM. As for the experimental part: Measurement of Inhibitory Activity Against PDGF-Ra Phosphorylation by PDGF-AA Stimulation Using G292
G-292 human osteosarcoma cells (Dainippon Pharmaceutical Co. Ltd.) were cultured in a DMEM medium (Dainippon Pharmaceutical Co. Ltd.) containing 10% FBS within an incubator containing 5% carbon dioxide until 80% confluent, and the cells were planted at 3×10^4 cells per well in 96-well flat-bottom plates in the same medium containing 0.1% FBS. After cultivation at 37° C. overnight, a solution of a test compound in dimethyl sulfoxide was added to each well, and a reaction was allowed to proceed at 37° C. for one hr.
After the reaction of the test compound, PDGF-AA (Upstate) was added to 50 ng/ml, and the cells were stimulated at 37° C. for 5 min. Thereafter, the cells were solubilized and shaken at room temperature for 20 min.
This solubilized cell solution was transferred to a 96-well plate coated with aniti-phosphotyrosine antibody PY-20, and a reaction was allowed to proceed at 4° C. overnight. Anti-PDGF-Ra (c-20) (Santa Cruz) was added as a primary antibody, and a reaction was allowed to proceed for one hr. GAR (Anti-rabbit Ig, horseradish peroxidase, Amersham) was then added as a secondary antibody, and a reaction was allowed to proceed for one hr. Color development was carried out using a color development kit for peroxidase (Sumitomo Bakelite Co., Ltd.), and the absorbance was measured at 450 nm.

Where [1] appears, read: figure within parentheses in >100( ).

T1 sequence (P16234 24-1089): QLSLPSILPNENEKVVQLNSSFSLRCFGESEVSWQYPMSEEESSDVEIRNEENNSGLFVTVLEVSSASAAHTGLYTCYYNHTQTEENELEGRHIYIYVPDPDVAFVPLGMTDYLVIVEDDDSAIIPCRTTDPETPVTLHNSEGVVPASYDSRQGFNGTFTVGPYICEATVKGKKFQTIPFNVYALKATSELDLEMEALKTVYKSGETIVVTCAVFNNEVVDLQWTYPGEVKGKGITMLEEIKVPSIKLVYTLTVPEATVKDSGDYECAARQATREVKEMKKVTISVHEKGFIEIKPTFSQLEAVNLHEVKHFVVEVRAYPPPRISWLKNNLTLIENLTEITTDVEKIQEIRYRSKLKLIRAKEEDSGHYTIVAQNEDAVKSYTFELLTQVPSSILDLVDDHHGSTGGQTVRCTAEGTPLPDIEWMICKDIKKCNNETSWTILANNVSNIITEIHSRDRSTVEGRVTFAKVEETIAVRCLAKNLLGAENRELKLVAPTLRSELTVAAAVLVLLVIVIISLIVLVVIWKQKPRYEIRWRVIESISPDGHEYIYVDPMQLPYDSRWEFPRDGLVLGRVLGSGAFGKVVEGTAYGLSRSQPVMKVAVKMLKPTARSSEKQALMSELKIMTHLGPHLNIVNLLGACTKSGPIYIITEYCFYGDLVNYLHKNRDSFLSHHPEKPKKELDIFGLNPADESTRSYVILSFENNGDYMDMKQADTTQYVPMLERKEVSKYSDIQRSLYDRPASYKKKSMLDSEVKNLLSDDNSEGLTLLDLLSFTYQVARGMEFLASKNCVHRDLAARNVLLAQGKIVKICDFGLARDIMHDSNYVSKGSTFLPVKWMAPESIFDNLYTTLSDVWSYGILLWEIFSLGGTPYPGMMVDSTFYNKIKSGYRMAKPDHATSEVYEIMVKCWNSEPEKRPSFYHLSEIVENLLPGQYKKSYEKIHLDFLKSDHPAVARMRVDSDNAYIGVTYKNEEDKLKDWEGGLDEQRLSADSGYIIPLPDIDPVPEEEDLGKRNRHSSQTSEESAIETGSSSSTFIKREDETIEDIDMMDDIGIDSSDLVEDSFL

Regarding `COc1cc2nccc(Oc3cc(C)c(NC(=O)OCC4CC4)cc3C)c2cc1OC` [Example 381, Cyclopropylmethyl N-{4-[(6,7-dimethoxy-4-quinolyl)oxy]-2,5-dimethylphenyl}carbamate], for the setting “Pharmacological Test Example 1”, the IC50 was determined as 66 nM.
As to `COc1cc2ncnc(Oc3ccc(NC(=O)OCC4CC4)c(Cl)c3)c2cc1OC` [Example 384, Cyclopropylmethyl N-{2-chloro-4-[(6,7-dimethoxy-4-quinazolinyl)oxy]phenyl}carbamate], the inhibition at 0.1 µM (figure in parentheses in >100( )) is 37%. For the setting “Pharmacological Test Example 1”, the IC50 is over 100 nM.
Regarding `COc1cc2ncnc(Oc3ccc(NC(=O)OCC4CCC4)c(Cl)c3)c2cc1OC` [Example 389, Cyclobutylmethyl N-{2-chloro-4-[(6,7-dimethoxy-4-quinazolinyl)oxy]phenyl}carbamate], the IC50 (Pharmacological Test Example 1) is 51 nM.
Consider `COc1cc2nccc(Oc3cc(C)c(NC(=O)OCCCN4CCCCC4)cc3C)c2cc1OC` [Example 414, 3-Piperidinopropyl N-{4-[(6,7-dimethoxy-4-quinolyl)oxy]-2,5-dimethylphenyl}carbamate], for which the IC50 is over 100 nM. The inhibition at 0.1 µM under setting [1] is 27%.
In the same order, the values of `COc1cc2nccc(Oc3ccc(NC(=O)ON4C(=O)c5ccccc5C4=O)cc3)c2cc1OC` [Example 416, 1,3-Dioxo-2,3-dihydro-1H-2-isoindolyl N-{4-[(6,7-dimethoxy-4-quinolyl)oxy]phenyl}carbamate] are over 100 nM and 49%.
The corresponding values for `COc1cc2nccc(Oc3cc(C)c(NC(=O)OCN4C(=O)c5ccccc5C4=O)cc3C)c2cc1OC` [Example 417, (1,3-Dioxo-2,3-dihydro-1H-2-isoindolyl)methyl N-{4-[(6,7-dimethoxy-4-quinolyl)oxy]-2,5-dimethylphenyl}carbamate] are over 100 nM and 42%.
On to `COc1cc2nccc(Oc3cc(C)c(NC(=O)OCCN4C(=O)c5ccccc5C4=O)cc3C)c2cc1OC` [Example 419, 2-(1,3-Dioxo-2,3-dihydro-1H-2-isoindolyl)ethyl N-{4-[(6,7-dimethoxy-4-quinolyl)oxy]-2,5-dimethylphenyl}carbamate], for which the IC50 is over 100 nM. The inhibition at 0.1 µM under setting [1] came to 47%.
Take `CCCC(CCN(CC)CC)OC(=O)Nc1ccc(Oc2ccnc3cc(OC)c(OC)cc23)cc1` (centres unmarked) [Example 441, 1-[2-(Diethylamino)ethyl]butyl N-{4-[(6,7-dimethoxy-4-quinolyl)oxy]phenyl}carbamate]: the IC50 came out at 70 nM.
For the molecule `COc1cc2nccc(Oc3ccc(NC(=O)OC(C#N)c4ccccc4)cc3)c2cc1OC` (centres unmarked) [Example 453, Cyano(phenyl)methyl N-{4-[(6,7-dimethoxy-4-quinolyl)oxy]phenyl}carbamate], the IC50 is over 100 nM. The inhibition at 0.1 µM under setting [1] came to 1%.
As for `COc1cc2nccc(Oc3cc(C)c(NC(=O)OC(C#N)c4ccccc4)cc3C)c2cc1OC` (centres unmarked) [Example 454, Cyano(phenyl)methyl N-{4-[(6,7-dimethoxy-4-quinolyl)oxy]-2,5-dimethylphenyl}carbamate], the IC50 is over 100 nM. Also, under setting [1], the inhibition at 0.1 µM came to 23%.
On to `COc1cc2nccc(Oc3ccc(NC(=O)OC(C#N)c4ccccc4)c(C)c3C)c2cc1OC` (centres unmarked) [Example 455, Cyano(phenyl)methyl N-{4-[(6,7-dimethoxy-4-quinolyl)oxy]-2,3-dimethylphenyl}carbamate], for which the IC50 was 77 nM.
Take `COc1cc2ncnc(Oc3ccc(NC(=O)Oc4ccccc4C#N)cc3)c2cc1OC` [Example 456, 2-Cyanophenyl N-{4-[(6,7-dimethoxy-4-quinazolinyl)oxy]phenyl}carbamate]: the IC50 is over 100 nM. Moreover, under setting [1], the inhibition at 0.1 µM amounted to 21%.
As to `COc1cc2nccc(Oc3ccc(NC(=O)Oc4cccc(C#N)c4)cc3)c2cc1OC` [Example 457, 3-Cyanophenyl N-{4-[(6,7-dimethoxy-4-quinolyl)oxy]phenyl}carbamate], the IC50 is over 100 nM. Further, the inhibition at 0.1 µM under setting [1] amounted to 29%.
The corresponding values for `COc1cc2nccc(Oc3cc(C)c(NC(=O)Oc4cccc(C#N)c4)cc3C)c2cc1OC` [Example 458, 3-Cyanophenyl N-{4-[(6,7-dimethoxy-4-quinolyl)oxy]-2,5-dimethylphenyl}carbamate] are over 100 nM and 18%.
In the same order, the values of `COc1cc2nccc(Oc3cc(C)c(NC(=O)Oc4ccc(C#N)cc4)cc3C)c2cc1OC` [Example 460, 4-Cyanophenyl N-{4-[(6,7-dimethoxy-4-quinolyl)oxy]-2,5-dimethylphenyl}carbamate] are over 100 nM and 15%.
As for `COc1cc2nccc(Oc3ccc(NC(=O)Oc4ccc(C#N)cc4)c(C)c3C)c2cc1OC` [Example 461, 4-Cyanophenyl N-{4-[(6,7-dimethoxy-4-quinolyl)oxy]-2,3-dimethylphenyl}carbamate], the IC50 was found to be 60 nM.
In the case of `COc1cc2ncnc(Oc3ccc(NC(=O)OC4CCCN(C)C4)cc3)c2cc1OC` (centres unmarked) [Example 465, 1-Methyl-3-piperidyl N-{4-[(6,7-dimethoxy-4-quinazolinyl)oxy]phenyl}carbamate], the IC50 is 56 nM.
Consider `COc1cc2nccc(Oc3ccc(NC(=O)OC4CCN(C)CC4)cc3)c2cc1OC` [Example 466, 1-Methyl-4-piperidyl N-{4-[(6,7-dimethoxy-4-quinolyl)oxy]phenyl}carbamate], for which the IC50 is over 100 nM. For the same molecule, the inhibition at 0.1 µM under setting [1] is 16%.
In the same order, the values of `COc1cc2nccc(Oc3cc(C)c(NC(=O)OC4CCN(C)CC4)cc3C)c2cc1OC` [Example 467, 1-Methyl-4-piperidyl N-{4-[(6,7-dimethoxy-4-quinolyl)oxy]-2,5-dimethylphenyl}carbamate] are over 100 nM and 8%.
In the same order, the values of `COc1cc2nccc(Oc3ccc(NC(=O)OC4CCN(C)CC4)c(C)c3C)c2cc1OC` [Example 468, 1-Methyl-4-piperidyl N-{4-[(6,7-dimethoxy-4-quinolyl)oxy]-2,3-dimethylphenyl}carbamate] are over 100 nM and 20%.
Turning to `CCN(C(=O)OCc1ccccc1OC)c1ccc(Oc2ncnc3cc(OC)c(OC)cc23)cc1Cl` [Example 485, 2-Methoxybenzyl N-{2-chloro-4-[(6,7-dimethoxy-4-quinazolinyl)oxy]phenyl}-N-ethylcarbamate], the IC50 was over 100 nM. In addition, the inhibition at 0.1 µM under setting [1] stood at 35%.
`CCN(C(=O)OCc1ccccc1C)c1ccc(Oc2ncnc3cc(OC)c(OC)cc23)cc1Cl` [Example 486, 2-Methylbenzyl N-{2-chloro-4-[(6,7-dimethoxy-4-quinazolinyl)oxy]phenyl}-N-ethylcarbamate]: the IC50 was over 100 nM. The inhibition at 0.1 µM under setting [1] was found to be 36%.
On to `CCN(C(=O)OCc1ccccc1Cl)c1ccc(Oc2ncnc3cc(OC)c(OC)cc23)cc1Cl` [Example 487, 2-Chlorobenzyl N-{2-chloro-4-[(6,7-dimethoxy-4-quinazolinyl)oxy]phenyl}-N-ethylcarbamate], for which the IC50 is over 100 nM. Further, the inhibition at 0.1 µM under setting [1] was determined as 31%.
On to `CCCC(CCC)OC(=O)N(CC)c1ccc(Oc2ncnc3cc(OC)c(OC)cc23)cc1Cl` [Example 488, 1-Propylbutyl N-{2-chloro-4-[(6,7-dimethoxy-4-quinazolinyl)oxy]phenyl}-N-ethylcarbamate], for which the IC50 stood at 98 nM.
Same read-out and setting: the figure for `CCCC(CCC)OC(=O)N(C)c1ccc(Oc2ncnc3cc(OC)c(OC)cc23)cc1` [Example 493, 1-Propylbutyl N-{4-[(6,7-dimethoxy-4-quinazolinyl)oxy]phenyl}-N-methylcarbamate] is 39 nM; for `C#CCC(CC)OC(=O)N(C)c1ccc(Oc2ncnc3cc(OC)c(OC)cc23)cc1` (centres unmarked) [Example 495, 1-Ethyl-3-butynyl N-{4-[(6,7-dimethoxy-4-quinazolinyl)oxy]phenyl}-N-methylcarbamate] it is 65 nM.
Still for that read-out and setting: the figure for `COc1cc2nccc(Oc3ccc(NC(=S)NCCN4CCCCC4)c(C)c3C)c2cc1OC` [Example 512, N-{4-[(6,7-Dimethoxy-4-quinolyl)oxy]-2,3-dimethylphenyl}-N′-(2-piperidinylethyl)thiourea] is 29 nM.
For `COc1cc2ncnc(Oc3ccc(NC(=S)NC4CCN(Cc5ccccc5)CC4)cc3)c2cc1OC` [Example 518, N-{4-[(6,7-Dimethoxy-4-quinazolinyl)oxy]phenyl}-N′-[4-(1-benzylpiperidinyl)]thiourea], the IC50 was over 100 nM. Moreover, the inhibition at 0.1 µM under setting [1] amounted to 17%.
In the same order, the values of `COc1cc2ncnc(Oc3ccc(NC(=S)NCCNC(C)=O)cc3)c2cc1OC` [Example 519] are over 100 nM and 22%.
For `COc1cc2nccc(Oc3ccc(NC(=S)NNC4CCCCC4)c(C)c3C)c2cc1OC` [Example 520, N-{4-[(6,7-Dimethoxy-4-quinolyl)oxy]-2,3-dimethylphenyl}-N′-(N-cyclohexylamino)thiourea], the IC50 is over 100 nM. Also, the inhibition at 0.1 µM under setting [1] is 43%.
